Experiment [1] addresses T1, MST2 (Homo sapiens, UniProt Q13188).
T1 construct: purchased Eurofins DiscoverX KINOMEscan
In words: KINOMEscan 1 μM, MST2. In kind it is binding. To be noted: 1000 nM; Entrez STK3; read-out: Percent Control. From the text:
(§1) Supplement cells-12-00287-s001.zip/File S2. KinomeScan data for the CAMKK2 probe and negative control.xlsx, sheet "SGC-CAMKK2-1" | column: Percent Control

The target of experiment [2] is T2, DRAK2 (Homo sapiens, UniProt O94768).
T2 construct: purchased Eurofins DiscoverX KINOMEscan
In words: KINOMEscan 1 μM, DRAK2. Type of experiment: binding. The conditions noted are these: 1000 nM; Entrez STK17B; read-out: Percent Control.
Excerpt: as §1

The target in experiment [3] is T3, FLT1 (Homo sapiens, UniProt P17948).
T3 construct: purchased Eurofins DiscoverX KINOMEscan
Kind of experiment: KINOMEscan at 1 μM, FLT1. Type of experiment: binding. To be noted: 1000 nM, read-out: Percent Control. From the text: (§2) Supplement cells-12-00287-s001.zip/File S2. KinomeScan data for the CAMKK2 probe and negative control.xlsx, sheet "SGC-CAMKK2-1N" | column: Percent Control

Experiment [4] has as its target T4, PRKG1 (Homo sapiens, UniProt Q13976).
T4 construct: purchased Eurofins DiscoverX KINOMEscan
Kind of experiment: KINOMEscan binding assay at 1 μM, PRKG1. The conditions noted are these: Compound Concentration 1000 nM; read-out: Percent Control.
Excerpt: as §2

T4 sequence (Q13976 whole entry): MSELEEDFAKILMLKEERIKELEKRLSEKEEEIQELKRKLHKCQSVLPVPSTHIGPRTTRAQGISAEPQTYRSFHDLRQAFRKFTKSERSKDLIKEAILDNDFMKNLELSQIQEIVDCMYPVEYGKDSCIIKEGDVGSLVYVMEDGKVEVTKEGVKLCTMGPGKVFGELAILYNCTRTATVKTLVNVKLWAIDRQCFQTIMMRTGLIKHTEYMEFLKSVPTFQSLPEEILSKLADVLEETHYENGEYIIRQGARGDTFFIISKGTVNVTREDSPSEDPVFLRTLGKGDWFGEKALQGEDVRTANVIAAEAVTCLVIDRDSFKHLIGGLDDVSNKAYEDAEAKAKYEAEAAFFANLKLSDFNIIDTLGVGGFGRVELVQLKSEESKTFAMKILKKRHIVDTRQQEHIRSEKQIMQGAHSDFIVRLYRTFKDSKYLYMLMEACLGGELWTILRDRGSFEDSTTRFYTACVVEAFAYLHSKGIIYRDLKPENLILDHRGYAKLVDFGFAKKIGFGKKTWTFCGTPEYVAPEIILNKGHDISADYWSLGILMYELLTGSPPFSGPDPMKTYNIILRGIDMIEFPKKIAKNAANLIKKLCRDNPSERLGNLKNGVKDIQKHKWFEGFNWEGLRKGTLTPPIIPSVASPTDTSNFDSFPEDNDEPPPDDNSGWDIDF
T1 sequence (Q13188 whole entry): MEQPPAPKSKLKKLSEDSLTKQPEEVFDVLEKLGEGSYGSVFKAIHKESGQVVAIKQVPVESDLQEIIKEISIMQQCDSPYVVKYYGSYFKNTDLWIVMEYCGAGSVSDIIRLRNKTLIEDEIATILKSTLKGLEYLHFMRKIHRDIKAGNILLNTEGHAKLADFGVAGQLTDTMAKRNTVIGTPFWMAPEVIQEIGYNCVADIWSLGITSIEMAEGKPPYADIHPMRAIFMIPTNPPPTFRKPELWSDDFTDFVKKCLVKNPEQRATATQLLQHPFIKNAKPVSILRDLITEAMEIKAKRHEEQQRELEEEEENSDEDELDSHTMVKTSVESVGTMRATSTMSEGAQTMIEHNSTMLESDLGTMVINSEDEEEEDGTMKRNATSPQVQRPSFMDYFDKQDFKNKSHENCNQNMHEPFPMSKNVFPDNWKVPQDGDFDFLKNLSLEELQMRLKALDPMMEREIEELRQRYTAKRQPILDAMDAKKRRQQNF
T2 sequence (O94768 whole entry): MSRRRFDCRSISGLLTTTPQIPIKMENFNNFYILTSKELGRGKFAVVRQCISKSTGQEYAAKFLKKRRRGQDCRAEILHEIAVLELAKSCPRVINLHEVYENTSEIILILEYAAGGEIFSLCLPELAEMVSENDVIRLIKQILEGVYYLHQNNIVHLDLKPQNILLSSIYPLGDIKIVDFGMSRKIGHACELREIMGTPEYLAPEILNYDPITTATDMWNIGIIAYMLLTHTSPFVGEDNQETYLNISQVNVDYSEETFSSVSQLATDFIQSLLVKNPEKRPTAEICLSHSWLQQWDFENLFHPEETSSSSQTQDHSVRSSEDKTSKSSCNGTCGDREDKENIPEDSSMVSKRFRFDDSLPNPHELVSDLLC
T3 sequence (P17948 27-1338): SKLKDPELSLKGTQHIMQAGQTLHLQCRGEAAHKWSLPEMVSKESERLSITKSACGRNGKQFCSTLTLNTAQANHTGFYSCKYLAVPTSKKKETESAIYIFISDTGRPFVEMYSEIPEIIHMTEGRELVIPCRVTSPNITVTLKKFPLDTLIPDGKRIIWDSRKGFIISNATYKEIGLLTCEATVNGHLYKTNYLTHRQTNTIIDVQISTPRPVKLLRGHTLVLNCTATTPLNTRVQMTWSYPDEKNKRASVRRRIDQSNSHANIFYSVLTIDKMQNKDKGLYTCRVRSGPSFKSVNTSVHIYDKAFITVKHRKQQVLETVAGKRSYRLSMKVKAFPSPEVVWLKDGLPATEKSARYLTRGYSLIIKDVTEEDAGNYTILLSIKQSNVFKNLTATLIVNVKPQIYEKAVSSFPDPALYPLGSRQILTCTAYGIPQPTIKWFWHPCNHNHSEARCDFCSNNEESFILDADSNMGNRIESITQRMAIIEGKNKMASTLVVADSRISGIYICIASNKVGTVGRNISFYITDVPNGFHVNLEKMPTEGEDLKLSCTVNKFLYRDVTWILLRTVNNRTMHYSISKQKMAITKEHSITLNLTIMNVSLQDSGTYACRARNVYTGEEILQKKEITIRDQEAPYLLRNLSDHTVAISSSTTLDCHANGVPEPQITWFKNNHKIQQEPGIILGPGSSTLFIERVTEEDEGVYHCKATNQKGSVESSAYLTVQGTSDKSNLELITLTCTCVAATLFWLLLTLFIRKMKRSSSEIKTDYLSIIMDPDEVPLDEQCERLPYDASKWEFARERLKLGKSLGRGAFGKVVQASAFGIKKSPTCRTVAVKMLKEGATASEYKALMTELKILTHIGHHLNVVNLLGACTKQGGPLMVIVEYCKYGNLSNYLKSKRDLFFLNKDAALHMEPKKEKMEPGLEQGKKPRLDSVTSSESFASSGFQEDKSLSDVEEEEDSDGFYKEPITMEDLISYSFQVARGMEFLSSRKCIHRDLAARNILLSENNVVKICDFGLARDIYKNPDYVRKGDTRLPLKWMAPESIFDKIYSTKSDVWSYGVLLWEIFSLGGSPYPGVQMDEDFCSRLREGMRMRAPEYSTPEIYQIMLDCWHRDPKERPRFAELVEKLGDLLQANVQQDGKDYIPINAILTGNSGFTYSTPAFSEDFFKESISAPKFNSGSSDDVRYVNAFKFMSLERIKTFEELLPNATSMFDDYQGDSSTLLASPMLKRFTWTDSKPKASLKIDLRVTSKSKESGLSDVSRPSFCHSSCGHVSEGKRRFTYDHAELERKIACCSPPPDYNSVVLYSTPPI

Turning to `Cc1cccc(-c2cnc3occ(-c4ccc(C(=O)O)c(C5CCCC5)c4)c3c2)c1` [SGC-CAMKK2-1 (YL-36)], the remaining binding at 1 µM amounted to 95% in experiment [1] and 100% in experiment [2].
As for `O=C(O)c1ccc(-c2coc3ncc(-c4ccccc4)cc23)cc1Cl` [SGC-CAMKK2-1N (UNC-YL-83)], the remaining binding at 1 µM is 76% in experiment [3] and 100% in experiment [4].

The values are drawn from paper PMC9856672, “SGC-CAMKK2-1: A Chemical Probe for CAMKK2” (Cells, 2023).
